The assay relates to OA articular chondrocytes. The experiment in a line: OA chondrocyte phenotype gene expression screening of BMP-7 peptides (RT-qPCR). The assay is classed as cell-based, human. The arrangement: key to COX-2 / COL2A1 / SOX9: [+] denotes a significantly increased expression of chondrogenic marker genes SOX9 and COL2A1, or a significantly decreased expression of OA phenotypic marker COX-2 in OA articular chondrocytes, in comparison to untreated OA articular chondrocytes; key to IL-6 / ADAMTS5 / COL10A / BAPX1/NKX3.2 / ALP / RUNX2: —: [-] denotes the absence of a significant effect or a significantly decreased expression of chondrogenic marker genes BAPX1/NKX3.2, or a significantly increased expression of OA phenotypic markers IL-6, ADAMTS5, COL10A, ALP and RUNX2 in OA articular chondrocytes, in comparison to untreated OA articular chondrocytes. The following applies: for COL2A1 / COX-2 / SOX9: Table 5. Here is the method:
(§1) FIG. 2: The action of 20-mer peptides (10 nM) of SEQ ID NO: 2-17 (peptides with 1 or 2 amino acids intervals (18-19 amino acid overlap)) and a random peptide with a sequence according to SEQ ID NO: 49 on the expression of ADAMTS5 was determined on a validated pool of passage 2 OA human articular chondrocytes (n=18) and compared to full-length recombinant BMP-7 (1 nM). Samples were harvested after 24 hours and analyzed for indicated genes by RT-qPCR (normalized for 28S rRNA expression and relative to control conditions (no peptide exposure)). In the graphs, numbers on the x-axis represent individual peptides according to their SEQ ID NO's, error bars represent mean±SEM, statistical differences were calculated (one-way ANOVA with bonferroni correction) to control condition. *=p<0.05 lower than control condition for ADAMTS5. Random peptide is a peptide according to SEQ ID NO: 49.
as §1, with “3:” for “2:”, “ALP” for “ADAMTS5”, “ALP.” for “ADAMTS5.”
as §1, with “4:” for “2:”, “BAPX1/NKX3.2” for “ADAMTS5”, “BAPX1/NKX3.2.” for “ADAMTS5.”
as §1, with “5:” for “2:”, “COL10A1” for “ADAMTS5”, “COL10A1.” for “ADAMTS5.”
FIG. 6: The action of 20-mer peptides (10 nM) of SEQ ID NO: 2-17 (peptides with 1 or 2 amino acids intervals (18-19 amino acid overlap)) and a random peptide with a sequence according to SEQ ID NO: 49 on the expression of IL-6 was determined on a validated pool of passage 2 OA human articular chondrocytes (n=18) and compared to full-length recombinant BMP-7 (1 nM). […]
A general note: Real-time PCR tracks product formation cycle by cycle.

Where [1] appears, read: Table 2 (FIG. 2: 10 nM, 24 hours, RT-qPCR, 28S rRNA normalized), vs untreated OA articular chondrocytes.
Where [2] appears, read: Table 2 (FIG. 3: 10 nM, 24 hours, RT-qPCR, 28S rRNA normalized), vs untreated OA articular chondrocytes.
Where [3] appears, read: Table 2 (FIG. 4: 10 nM, 24 hours, RT-qPCR, 28S rRNA normalized), vs untreated OA articular chondrocytes.
Setting [4] is: Table 2 (FIG. 5: 10 nM, 24 hours, RT-qPCR, 28S rRNA normalized), vs untreated OA articular chondrocytes.
The mark [5] stands for this setting: Table 2 (FIG. 6: 10 nM, 24 hours, RT-qPCR, 28S rRNA normalized), vs untreated OA articular chondrocytes.
The mark [6] stands for this setting: Table 2 (FIG. 7: 10 nM, 24 hours, RT-qPCR, 28S rRNA normalized), vs untreated OA articular chondrocytes.
[7] abbreviates: gene expression in OA articular chondrocytes vs untreated.
Setting [8] is: Table 1, gene expression in OA articular chondrocytes vs untreated.

For the substance “11 (LNAISVLYFDDSSNVILKKY; listed as Homo sapiens) [compound 11]”, under setting [1], the ADAMTS5 entry is given as “+”. Moreover, the ALP entry under setting [2] was “+”. The BAPX1/NKX3.2 result under setting [3] was “+”. The COL10A result under setting [4] is on record as “+”. The IL-6 entry under setting [5] is “+”. The RUNX2 result under setting [6] is given as “+”. Further, under setting [7], the COL2A1 entry is “+”, the COX-2 result was “+” and the SOX9 result is on record as “+”.

With “12 (AISVLYFDDSSNVILKKYRN; listed as Homo sapiens) [compound 12]”, the ADAMTS5 entry under setting [1] was “+”. Besides, the ALP entry under setting [2] is given as “+”. Further, under setting [3], the BAPX1/NKX3.2 result is on record as “+”. Also, the COL10A result under setting [4] is “+”. Besides, the IL-6 entry under setting [5] is listed as “+”. Besides, under setting [6], the RUNX2 result is given as “+”. Under setting [7], the COL2A1 result is given as “+”, the COX-2 entry is on record as “+” and the SOX9 entry was “+”.

With “13 (SVLYFDDSSNVILKKYRNMV; listed as Homo sapiens) [compound 13]”, the ADAMTS5 result under setting [1] is on record as “+”. In addition, the ALP result under setting [2] is reported as “+”. Besides, the BAPX1/NKX3.2 entry under setting [3] is on record as “+”. Under setting [4], the COL10A entry is “+”. Further, the IL-6 entry under setting [5] was “+”. For the same substance, the RUNX2 result under setting [6] is “+”. For the same substance, under setting [7], the COL2A1 result was “+”, the COX-2 result was “+” and the SOX9 result is listed as “+”.

For “14 (LYFDDSSNVILKKYRNMVVR; listed as Homo sapiens) [compound 14]”, under setting [1], the ADAMTS5 entry is “+”. In addition, the ALP entry under setting [2] is recorded as “+”. Besides, the BAPX1/NKX3.2 result under setting [3] is given as “+”. Further, under setting [4], the COL10A result is on record as “+”. Moreover, under setting [5], the IL-6 result is “+”. The RUNX2 result under setting [6] was “—”. Under setting [7], the COL2A1 result was “+”, the COX-2 result was “+” and the SOX9 result is reported as “+”.

Take “15 (FDDSSNVILKKYRNMVVRAS; listed as Homo sapiens) [compound 15]”: under setting [1], the ADAMTS5 result is given as “+”. The ALP entry under setting [2] is listed as “+”. Moreover, under setting [3], the BAPX1/NKX3.2 result is “+”. Further, the COL10A result under setting [4] was “+”. Further, the IL-6 entry under setting [5] was “+”. The RUNX2 entry under setting [6] is “—”. In addition, under setting [7], the COL2A1 result is listed as “+”, the COX-2 result was “+” and the SOX9 entry is on record as “+”.

For “16 (DSSNVILKKYRNMVVRASGS; listed as Homo sapiens) [compound 16]”, under setting [1], the ADAMTS5 result is “+”. The ALP entry under setting [2] is “+”. Also, the BAPX1/NKX3.2 entry under setting [3] is recorded as “+”. In addition, under setting [4], the COL10A result is recorded as “+”. Under setting [5], the IL-6 entry was “+”. For the same substance, the RUNX2 result under setting [6] is reported as “—”. Moreover, under setting [7], the COL2A1 entry was “+”, the COX-2 result is listed as “+” and the SOX9 result is listed as “+”.

“17 (SSNVILKKYRNMVVRASGSH; listed as Homo sapiens) [compound 17]”: under setting [1], the ADAMTS5 entry is recorded as “+”. Moreover, the ALP entry under setting [2] is “+”. Also, the BAPX1/NKX3.2 entry under setting [3] is given as “+”. For the same substance, the COL10A entry under setting [4] is on record as “+”. In addition, under setting [5], the IL-6 result is listed as “+”. Further, the RUNX2 result under setting [6] is on record as “+”. For the same substance, under setting [7], the COL2A1 result is “+”, the COX-2 entry was “+” and the SOX9 result is reported as “+”.

In the case of “18 (PKPSSAPTQLNAISVLYFDDSSNVILKKYRNMVVRASGSH; listed as Homo sapiens) [compound 18]”, the ADAMTS5 entry under setting [1] is “+”. The ALP result under setting [2] is “+”. The BAPX1/NKX3.2 result under setting [3] was “+”. For the same substance, the COL10A entry under setting [4] is “+”. The IL-6 result under setting [5] is on record as “+”. Also, the RUNX2 entry under setting [6] is “+”.

“19 (STGSKQRSQNRSKTPKNQEA; listed as Homo sapiens) [compound 19]”: under setting [8], the ADAMTS5 entry is “—”, the ALP result is recorded as “—”, the BAPX1/NKX3.2 entry was “—” and the COL10A entry is given as “—”. In addition, under setting [8], the IL-6 result is recorded as “—” and the RUNX2 result is on record as “—”.

For “20 (KTPKNQEALRMANVAENSSSSSDQRQACKK; listed as Homo sapiens) [compound 20]”, under setting [8], the ADAMTS5 result is “—”, the ALP result was “—”, the BAPX1/NKX3.2 entry is “—” and the COL10A result is reported as “—”. For the same substance, under setting [8], the IL-6 entry is “—” and the RUNX2 entry is “—”.

Regarding “21 (SSDQRQACKKHELYVSFRDL; listed as Homo sapiens) [compound 21]”, under setting [8], the ADAMTS5 result is listed as “—”, the ALP entry is “—”, the BAPX1/NKX3.2 result was “—” and the COL10A entry was “—”. Besides, under setting [8], the IL-6 result is “—” and the RUNX2 result is “—”.

Regarding “22 (DLGWQDWIIAPEGYAAYYCE; listed as Homo sapiens) [compound 22]”, under setting [8], the ADAMTS5 result is reported as “—”, the ALP result is “—”, the BAPX1/NKX3.2 entry was “—” and the COL10A result is on record as “—”. For the same substance, under setting [8], the IL-6 result is listed as “—” and the RUNX2 result is “—”.

Regarding “23 (CEGECAFPLNSYMNATNHAI; listed as Homo sapiens) [compound 23]”, under setting [8], the ADAMTS5 result was “—”, the ALP entry was “—”, the BAPX1/NKX3.2 entry is given as “—” and the COL10A result is listed as “—”. Under setting [8], the IL-6 result was “—” and the RUNX2 result is on record as “—”.

As for “24 (AIVQTLVHFINPETVPKPCC; listed as Homo sapiens) [compound 24]”, under setting [8], the ADAMTS5 entry is reported as “—”, the ALP result is given as “—”, the BAPX1/NKX3.2 result is on record as “—” and the COL10A entry was “—”. Besides, under setting [8], the IL-6 result is listed as “—” and the RUNX2 entry was “—”.

For “25 (CCAPTQLNAISVLYFDDSSN; listed as Homo sapiens) [compound 25]”, under setting [8], the ADAMTS5 entry is recorded as “—”, the ALP result is reported as “—”, the BAPX1/NKX3.2 entry was “—” and the COL10A result is on record as “—”. Besides, under setting [8], the IL-6 result was “—” and the RUNX2 result is given as “—”.

On to “26 (SSNVILKKYRNMVVRACGCH; listed as Homo sapiens) [compound 26]”, for which, under setting [8], the ADAMTS5 entry is recorded as “—”, the ALP entry was “—”, the BAPX1/NKX3.2 result was “—” and the COL10A entry is given as “—”. Besides, under setting [8], the IL-6 entry is on record as “—” and the RUNX2 result is “—”.

The record behind these values is US11141462B2, “Method for the treatment or prevention of osteoarthritis” (Chondropeptix B.V., priority 2016, dated 2021).
